Values joined by “and” are separate entries in the source; they are usually repeats but may differ in a detail not shown here. Identical values can stand only once. Strand notation (5' to 3'): a small letter for the sugar, then the base; units joined by * are phosphorothioate-linked, units joined directly phosphodiester-linked; [ ] holds rarer units or linkages, { } end groups; capitals alone tell only the bases. k = constrained ethyl (cEt); [5mC] = 5-methylcytosine; d = 2'-deoxy (DNA)
System: human SMAD7 mRNA
Assay: Antisense inhibition of human SMAD7 mRNA expression in Hep3B cells by 3-10-3 cEt gapmers, 10,000 nM, electroporation (Example 2)
Format: cell-based
Details: Hep3B cells, electroporation with 10,000 nM antisense oligonucleotide, approximately 24 hours, primer probe set RTS5062, relative to untreated control cells
Summary of the method: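 SMAD7 mRNA was measured by real-time PCR (RTS5062) with RiboGreen total-RNA normalization, about 24 h after 10,000 nM gapmer was delivered by electroporation into Hep3B cells at 20,000 per well. Gapmers were 16-mer 3-10-3 cEt, fully phosphorothioate; values are % inhibition versus untreated controls.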

Substance | % inhibition of SMAD7 mRNA expression | % Inhibition
799007 (kT*kG*k[5mC]*d[5mC]*dG*d[5mC]*dT*d[5mC]*d[5mC]*dT*dG*d[5mC]*dA*k[5mC]*kA*k[5mC]; antisense) [compound 799007] | 47% | 
799008 (k[5mC]*k[5mC]*kA*dT*d[5mC]*dT*dG*d[5mC]*d[5mC]*dG*d[5mC]*dT*d[5mC]*k[5mC]*kT*kG; antisense) [compound 799008] | 60% | 
799009 (kT*k[5mC]*k[5mC]*d[5mC]*d[5mC]*dA*dT*d[5mC]*dT*dG*d[5mC]*d[5mC]*dG*k[5mC]*kT*k[5mC]; antisense) [compound 799009] | 62% | 
799010 (k[5mC]*kG*kT*dT*dG*dT*d[5mC]*dT*d[5mC]*d[5mC]*d[5mC]*d[5mC]*dA*kT*k[5mC]*kT; antisense) [compound 799010] | 57% | 
799011 (k[5mC]*kA*kA*dA*dA*d[5mC]*dA*dA*dA*dG*dA*dG*d[5mC]*kA*k[5mC]*kG; antisense) [compound 799011] | 35% | 
799012 (kA*kT*kA*dA*dG*dA*dG*dA*d[5mC]*dA*d[5mC]*dA*dA*kA*kA*k[5mC]; antisense) [compound 799012] | 43% | 
799013 (kT*k[5mC]*k[5mC]*dA*dT*dA*dA*dG*dA*dG*dA*d[5mC]*dA*k[5mC]*kA*kA; antisense) [compound 799013] |  | 37%
799014 (kA*k[5mC]*kA*dT*d[5mC]*d[5mC]*dA*dT*dA*dA*dG*dA*dG*kA*k[5mC]*kA; antisense) [compound 799014] |  | 29%
799015 (kG*kG*kG*dA*d[5mC]*dA*dT*d[5mC]*d[5mC]*dA*dT*dA*dA*kG*kA*kG; antisense) [compound 799015] |  | 25%
799016 (k[5mC]*kA*kA*dA*d[5mC]*d[5mC]*dT*d[5mC]*dT*d[5mC]*dT*dG*d[5mC]*kT*kG*kG; antisense) [compound 799016] |  | 30%
799017 (kT*kG*k[5mC]*dA*dA*dA*d[5mC]*d[5mC]*dT*d[5mC]*dT*d[5mC]*dT*kG*k[5mC]*kT; antisense) [compound 799017] |  | 0%
799018 (k[5mC]*kT*kG*d[5mC]*dA*dA*dA*d[5mC]*d[5mC]*dT*d[5mC]*dT*d[5mC]*kT*kG*k[5mC]; antisense) [compound 799018] |  | 29%
799019 (kA*k[5mC]*kT*dG*d[5mC]*dA*dA*dA*d[5mC]*d[5mC]*dT*d[5mC]*dT*k[5mC]*kT*kG; antisense) [compound 799019] |  | 36%
799020 (kG*kA*k[5mC]*dT*dG*d[5mC]*dA*dA*dA*d[5mC]*d[5mC]*dT*d[5mC]*kT*k[5mC]*kT; antisense) [compound 799020] |  | 48%
799021 (kG*kG*kA*d[5mC]*dT*dG*d[5mC]*dA*dA*dA*d[5mC]*d[5mC]*dT*k[5mC]*kT*k[5mC]; antisense) [compound 799021] |  | 62%
799022 (kG*kG*kG*dA*d[5mC]*dT*dG*d[5mC]*dA*dA*dA*d[5mC]*d[5mC]*kT*k[5mC]*kT; antisense) [compound 799022] |  | 61%
799023 (kT*kG*kG*dG*dA*d[5mC]*dT*dG*d[5mC]*dA*dA*dA*d[5mC]*k[5mC]*kT*k[5mC]; antisense) [compound 799023] | 42% | 
799024 (k[5mC]*kT*kT*dG*dG*dG*dA*d[5mC]*dT*dG*d[5mC]*dA*dA*kA*k[5mC]*k[5mC]; antisense) [compound 799024] | 0% | 
799025 (k[5mC]*kG*k[5mC]*dT*dT*dG*dG*dG*dA*d[5mC]*dT*dG*d[5mC]*kA*kA*kA; antisense) [compound 799025] | 10% | 

Substance | % inhibition of SMAD7 mRNA expression | % Inhibition
799026 (k[5mC]*k[5mC]*kG*d[5mC]*dT*dT*dG*dG*dG*dA*d[5mC]*dT*dG*k[5mC]*kA*kA; antisense) [compound 799026] | 1% | 
799027 (kA*k[5mC]*k[5mC]*dG*d[5mC]*dT*dT*dG*dG*dG*dA*d[5mC]*dT*kG*k[5mC]*kA; antisense) [compound 799027] | 46% | 
799028 (kA*kG*kA*d[5mC]*dA*d[5mC]*d[5mC]*dG*d[5mC]*dT*dT*dG*dG*kG*kA*k[5mC]; antisense) [compound 799028] | 37% | 
799029 (kG*kG*kA*dG*dA*dG*dA*d[5mC]*dA*d[5mC]*d[5mC]*dG*d[5mC]*kT*kT*kG; antisense) [compound 799029] | 0% | 
799030 (kG*k[5mC]*kA*dG*dG*dA*dG*dA*dG*dA*d[5mC]*dA*d[5mC]*k[5mC]*kG*k[5mC]; antisense) [compound 799030] | 52% | 
799031 (kT*kG*k[5mC]*d[5mC]*dT*d[5mC]*dT*dG*d[5mC]*d[5mC]*d[5mC]*d[5mC]*dA*k[5mC]*kT*kG; antisense) [compound 799031] | 46% | 
799032 (kA*kG*kG*dT*dA*d[5mC]*dT*dG*d[5mC]*d[5mC]*dT*d[5mC]*dT*kG*k[5mC]*k[5mC]; antisense) [compound 799032] | 42% | 
799033 (k[5mC]*k[5mC]*k[5mC]*dA*dG*dG*dT*dA*d[5mC]*dT*dG*d[5mC]*d[5mC]*kT*k[5mC]*kT; antisense) [compound 799033] |  | 35%
799034 (k[5mC]*kT*kT*dG*d[5mC]*d[5mC]*d[5mC]*dA*dG*dG*dT*dA*d[5mC]*kT*kG*k[5mC]; antisense) [compound 799034] |  | 12%
799035 (k[5mC]*kG*k[5mC]*d[5mC]*dA*dG*d[5mC]*dT*dT*dG*d[5mC]*d[5mC]*d[5mC]*kA*kG*kG; antisense) [compound 799035] |  | 0%
799036 (kA*kG*k[5mC]*d[5mC]*dG*d[5mC]*d[5mC]*dA*dG*d[5mC]*dT*dT*dG*k[5mC]*k[5mC]*k[5mC]; antisense) [compound 799036] |  | 8%
799037 (k[5mC]*k[5mC]*k[5mC]*d[5mC]*dA*dG*d[5mC]*d[5mC]*dG*d[5mC]*d[5mC]*dA*dG*k[5mC]*kT*kT; antisense) [compound 799037] |  | 9%
799038 (kG*kG*kA*d[5mC]*d[5mC]*d[5mC]*d[5mC]*dA*dG*d[5mC]*d[5mC]*dG*d[5mC]*k[5mC]*kA*kG; antisense) [compound 799038] |  | 19%
799039 (kT*kG*k[5mC]*dT*dG*dG*dG*dA*d[5mC]*d[5mC]*d[5mC]*d[5mC]*dA*kG*k[5mC]*k[5mC]; antisense) [compound 799039] |  | 19%
799040 (kA*kG*k[5mC]*dT*dG*d[5mC]*dT*dG*dG*dG*dA*d[5mC]*d[5mC]*k[5mC]*k[5mC]*kA; antisense) [compound 799040] |  | 51%
799041 (kG*kG*k[5mC]*dA*dG*d[5mC]*dT*dG*d[5mC]*dT*dG*dG*dG*kA*k[5mC]*k[5mC]; antisense) [compound 799041] |  | 22%
799042 (kT*kG*k[5mC]*dT*d[5mC]*d[5mC]*dT*dG*dG*d[5mC]*dA*dG*d[5mC]*kT*kG*k[5mC]; antisense) [compound 799042] |  | 33%
799043 (kA*kG*k[5mC]*d[5mC]*dG*dT*dG*d[5mC]*dT*d[5mC]*d[5mC]*dT*dG*kG*k[5mC]*kA; antisense) [compound 799043] | 0% and 10% | 

Reference: patent publication US10517889B2, “Modulators of SMAD7 expression” (Ionis Pharmaceuticals, Inc., priority 2017, dated 2019)
